Assay results as given in BigSolDB 2.1.

CCCNS(=O)(=O)Nc1ncnc(OCCOc2ncc(Br)cn2)c1-c1ccc(Br)cc1
solubility (mole fraction)
Conditions	273.15 K	278.15 K	283.15 K	288.15 K	293.15 K	298.15 K	303.15 K	308.15 K	313.15 K
in ethanol	6.4e-05	8.8e-05	0.000117	0.000151	0.000188	0.000234	0.000293	0.000365	0.000458
in ethyl acetate	0.00338	0.00406	0.00483	0.00577	0.00681	0.00793	0.00921	0.0107	0.0122
in isopropanol	4.7e-05	5.9e-05	7.5e-05	9.2e-05	0.000114	0.000141	0.000172	0.000206	0.000246
in methanol	7.6e-05	0.000109	0.000145	0.000186	0.000232	0.000284	0.000358	0.000463	0.000602
